{"source": "patent US9606123B2", "about": "“Compositions and methods for diagnosing and monitoring ovarian cancer progression and treatment” (University of Virginia Patent Foundation, priority 2013, dated 2017)", "key": {"[1]": {"tested_on": "VCAM-1 expression in mesothelial cells (LP9)", "assay": "Western analysis of VCAM-1 expression in mesothelial cells (LP9) treated with carboplatin", "assay_type": "cell-based", "details": "LP9 human mesothelial cells; up to 1 μg/ml carboplatin for 24 hours"}, "A2780Cis cells": {"tested_on": "A2780Cis cells", "assay": "Tumor burden in A2780Cis-tumored mice treated with carboplatin", "assay_type": "in vivo, Athymic nude mice", "details": "mice with platinum-resistant A2780Cis tumors, 25 mg/kg carboplatin weekly IP", "procedure": "(§1) FIG. 3. Carboplatin indirectly regulates mesothelial VCAM-1 expression by affecting tumor burden. Athymic nude mice were given an intraperitoneal (IP) injection of A2780 (n=3 per time point) or A2780Cis (n=3 per time point) cells or saline (control, n=2). One week following tumor initiation a group of mice was imaged to obtain baseline values; the remaining mice were treated with 25 mg/kg carboplatin weekly. (A) SPECT/CT images were collected weekly starting 1 week after tumor initiation (week 0); weeks 0, 1 and 2 indicate that time after carboplatin treatment. […] Heart and omentum were removed from each cohort of mice weekly post-carboplatin treatment (x-axis, 0=1 week tumor, no treatment) and the percent injected dose of radioactivity per gram of tissue determined as described above (see FIG. 2). n=3 for each cohort, C=control animals. […]\n(§2) To assess VCAM-1 as a marker of chemosensitivity, two cohorts of mice were injected with an isogenic paired cell line with one being resistant and the other sensitive to platinum: The first cohort (n=9) was injected with A2780, platinum sensitive cell line and the second (n=9) with A2780Cis platinum resistant cell line. […] After each timepoint, n=3 animals from each cohort were sacrificed and VCAM-In^111 uptake quantified via biodistribution as described above."}, "[2]": {"details": "cited from earlier work"}, "A2780 cells": {"tested_on": "A2780 cells", "assay": "Tumor burden in mice bearing platinum-sensitive cells treated with carboplatin", "assay_type": "in vivo, Athymic nude mice", "details": "25 mg/kg carboplatin weekly IP", "procedure": "as §1, §2"}}, "note": "Entries after “also recorded” stand apart in the source; their conditions may differ.", "data": [{"molecule": "N.N.O=C([O-])C1(C(=O)[O-])CCC1.[Pt+2]", "note": "[carboplatin, cis-Diamine(1,1-cyclobutanedicarboxylato)platinum(II)]", "values": [{"measurement": "Change in VCAM-1 expression (Western)", "setting": "[1]", "result": "no change"}, {"measurement": "Tumor growth / tumor burden under carboplatin", "setting": "A2780Cis cells", "result": "neither was altered; also recorded: continued to grow"}, {"measurement": "Solubility in water", "setting": "[2]", "result": 25, "unit": "mM"}, {"measurement": "Tumor burden following carboplatin treatment", "setting": "A2780 cells", "result": "decreases"}]}]}
